The nature of this experiment: Inhibition of Streptomyces globisporus TAM.

SMILES strings stand for the structures.

Turning to `O=C(O)[C@H]1O[C@@H]1c1ccc(F)cc1`, the IC50 (commonly the concentration needed to halve the response being measured) stood at 11.6 mM.
In the case of `O=C(O)[C@H]1O[C@@H]1c1ccccc1` it was 5.8 mM; in that of `COc1ccc([C@H]2O[C@@H]2C(=O)O)cc1`, 3 mM; in that of `N[C@H](c1ccccc1)C(F)(F)C(=O)O`, 7.3 mM.

(Values after ChEMBL document CHEMBL1142393, “Design and characterization of mechanism-based inhibitors for the tyrosine aminomutase SgTAM” (Bioorg Med Chem Lett, 2008).)
